Assay results published in publication PMC13349481 (ACS chemical biology, 2025).

System: P-glycoprotein (Pgp, MDR1)
Assay: MDCKII-MDR1 permeability and Pgp efflux
Format: in vitro ADME
Conditions: dog

Papp A→B (MDCK-MDR1): 28.6 ×10⁻⁶ cm/s
Papp B→A (MDCK-MDR1): 28 ×10⁻⁶ cm/s
efflux ratio (MDCK-MDR1): 0.98
recovery (MDCK-MDR1, recovery (%) A-B, MDCKII-MDR1, A-B): 109%
recovery (MDCK-MDR1, recovery (%) B-A, MDCKII-MDR1, B-A): 97.4%
Compound: COCCc1ccc(OCC(O)CNC(C)C)cc1 (centres unmarked) [metoprolol]
